# Patent US20060135393A1, “Mild cleansing composition” (KPSS-Kao Professional Salon Services GmbH, priority 2004, published 2006)
# Test system: male and female volunteers backs
# Assay: Occlusive multiple patch test for skin irritation potential (Hayes Chamber)
# Assay type: in vivo, human
# Conditions: shampoos diluted to 10% by weight in tap water; 25 μl per chamber; 3 applications, 72 hours total skin contact; visual scoring by dermatologist, 0 (no apparent cutaneous involvement) to 4 (severe erythema with edema)
# Method: The above composition and the comparative compositions (see below) were tested for their skin irritation potential in an occlusive patch test using male and female volunteers backs aging 45+−14 years using Hayes Chamber with 25 μl volume. In detail, the shampoo compositions to be tested were diluted to a shampoo concentration of 10% by weight in tap water and homogeneously mixed. Using a laboratory calibrated pipette 25 μl of the solutions were filled into the chambers and the samples were patched onto the backs of the volunteers. The application was repeated 3 times (the duration of skin contact in total is 72 hours). After removal of the last patch (after 72 hrs), the application areas were evaluated visually by a dermatologist. The evaluation scores were as follows: [table] Such kind of tests are offered by several dermatological institutes or dermatologists having private clinics and the tests of the present invention were as well carried out in a dermatological institutes in Germany.
smiles,measurement,value
"CCCCCCCCCCCCOS(=O)(=O)[O-].[Na+] [1% SDS* solution, sodium dodecyl sulfate]",Irritation score,1.99
